Earlier results, collected in US20090318550A1, “Emulsions comprising at least one retinoid and benzoyl peroxide” (GALDERMA RESEARCH & DEVELOPMENT, priority 2006, published 2009).
Read-outs that look alike come from different tables or passages of the source. One block for each molecule: values may come before it.

Assays:
[1] = in presence of benzoyl peroxide formulation
[2] = for Decomposition time: 40° C.

Decomposition of the retinoid ([1]; during 24 hours): no decomposition
SMILES: COc1ccc(-c2ccc3cc(C(=O)O)ccc3c2)cc1C12CC3CC(CC(C3)C1)C2 [adapalene, 6-(3-(1-adamantyl)-4-methoxyphenyl)-2-naphthoic acid]

Decomposition time ([2]; in solution in PEG 400 (0.5 mg/g)): 1.4 days
Decomposition time ([2]; in solution in ethanol): 29 days
Decomposition time ([2]; in solution in propylene glycol): 53 days
Decomposition in suspension (dispersed form) ([2]; in water and propylene glycol, storing for 90 days): not decomposed
SMILES: O=C(OOC(=O)c1ccccc1)c1ccccc1 [benzoyl peroxide]

Decomposition of the retinoid ([1]; 2 hours): 50%
Decomposition of the retinoid ([1]; 4 hours): 95%
SMILES: CC1=C(/C=C/C(C)=C/C=C/C(C)=C/C(=O)O)C(C)(C)CCC1 [tretinoin]
